{
  "source": "paper PMC7002685",
  "about": "“Inhibition of vascular calcification by inositol phosphates derivatized with ethylene glycol oligomers” (Nature Communications, 2020)",
  "key": {"Adenosine A1": {"biological_target": "T1, Adenosine A1 (Homo sapiens, UniProt P30542)", "T1 construct": "purchased Eurofins Panlabs Discovery Services Taiwan, Ltd", "T1 sequence (P30542 whole entry)": "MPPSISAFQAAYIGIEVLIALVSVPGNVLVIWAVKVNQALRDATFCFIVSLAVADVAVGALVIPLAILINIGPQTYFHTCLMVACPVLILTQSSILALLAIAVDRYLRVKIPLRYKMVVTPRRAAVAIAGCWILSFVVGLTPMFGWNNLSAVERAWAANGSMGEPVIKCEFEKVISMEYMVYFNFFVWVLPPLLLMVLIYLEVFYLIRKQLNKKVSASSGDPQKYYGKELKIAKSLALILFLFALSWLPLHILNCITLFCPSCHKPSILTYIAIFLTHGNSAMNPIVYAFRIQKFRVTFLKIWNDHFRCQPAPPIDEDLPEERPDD", "assay": "Off-target 200510", "format": "binding", "experimental": "(§1) The potential off-target activity of 10 µM (OEG2)2-IP4 was assessed against a panel of 87 enzymes, receptors, or ion channels that are used in standard safety pharmacology screens.\n(§2) 3.2. Off-target screening assay\n(§3) The experiments were conducted by a contract research organization (Eurofins Panlabs Discovery\n(§4) Services Taiwan, Ltd.) and details on the respective assays can be retrieved via the catalog number\n(§5) provided in Supplementary Table 11 from the company’s webpage\n(§6) (https://www.eurofinsdiscoveryservices.com/). […]"}, "Monoamine Oxidase MAO-B": {"biological_target": "T2, Monoamine Oxidase MAO-B (Homo sapiens, UniProt P27338)", "T2 construct": "purchased Eurofins Panlabs Discovery Services Taiwan, Ltd", "T2 sequence (P27338 whole entry)": "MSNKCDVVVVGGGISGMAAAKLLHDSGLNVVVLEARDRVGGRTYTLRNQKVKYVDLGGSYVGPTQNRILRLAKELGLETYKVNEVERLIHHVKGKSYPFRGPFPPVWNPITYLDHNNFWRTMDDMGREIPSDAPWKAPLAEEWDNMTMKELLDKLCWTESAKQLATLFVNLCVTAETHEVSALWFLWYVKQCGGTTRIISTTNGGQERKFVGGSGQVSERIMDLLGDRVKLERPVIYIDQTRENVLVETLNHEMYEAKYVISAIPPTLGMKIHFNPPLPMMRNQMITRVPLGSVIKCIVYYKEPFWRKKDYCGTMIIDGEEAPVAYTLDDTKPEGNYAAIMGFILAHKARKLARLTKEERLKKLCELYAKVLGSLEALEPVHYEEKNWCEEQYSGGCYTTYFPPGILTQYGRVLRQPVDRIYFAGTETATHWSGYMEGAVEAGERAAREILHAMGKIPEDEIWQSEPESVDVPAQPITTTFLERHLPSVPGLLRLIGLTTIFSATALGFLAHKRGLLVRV", "assay": "Off-target 140120", "format": "biochemical", "experimental": "as §1, §2\n(§7) The experiments were conducted by a contract research organization (Eurofins Panlabs Discovery Services Taiwan, Ltd.) and details on the respective assays can be retrieved via the catalog number provided in Supplementary Table 11 from the company’s webpage\nas §6\n(§8) At sacrifice the left tibia of animals of the rat model with dietary adenine/high-phosphate-induced uremia and VC was collected, fixed with 70% v/v EtOH and embedded in methyl methacrylate. The trabecular bone compartment is known to be the most metabolic active i.e. actively re-structured bone compartment in CKD. Therefore, histomorphometric and micro-computed tomography (µCT) analysis of bone was performed on the trabecular compartment. Tibial sections were Goldner-stained for histomorphometric analysis of the proximal metaphysis using the AxioVision Release 4.5 software, as […]\n(§9) described previously5. […]"}, "[1]": {"test_system": "THP-1-derived macrophages", "assay": "Macrophage viability, compound without CPP2", "format": "cell-based, human", "experimental": "Cell viability was assessed using the MTS assay (CellTiter 96® Aqueous One Solution Cell Proliferation Assay, G3580; Promega, Madison, WI, USA) according to the manufacturer’s instructions. Assays using combined treatment of CPPs or CaP and test compounds were performed in 24-well plates using 20,000 cells per well and assays using test compounds only were performed in a 96-well plate format with a seeding density of 10,000 (VSMC) or 50,000 (THP-1) cells per well, respectively. For controls, cells were treated with respective complete medium only and results were calculated as % of control. […]\n(n = 3 independent experiments)."}, "[2]": {"test_system": "Glutamate, NMDA, Polyamine", "assay": "Off-target 234000", "format": "binding, Rat", "details": "10 µM", "experimental": "as §1, §2, §3, §4, §5, §6"}, "α2B": {"biological_target": "T3, α2B (Homo sapiens, UniProt P18089)", "T3 construct": "purchased Eurofins Panlabs Discovery Services Taiwan, Ltd", "T3 sequence (P18089 whole entry)": "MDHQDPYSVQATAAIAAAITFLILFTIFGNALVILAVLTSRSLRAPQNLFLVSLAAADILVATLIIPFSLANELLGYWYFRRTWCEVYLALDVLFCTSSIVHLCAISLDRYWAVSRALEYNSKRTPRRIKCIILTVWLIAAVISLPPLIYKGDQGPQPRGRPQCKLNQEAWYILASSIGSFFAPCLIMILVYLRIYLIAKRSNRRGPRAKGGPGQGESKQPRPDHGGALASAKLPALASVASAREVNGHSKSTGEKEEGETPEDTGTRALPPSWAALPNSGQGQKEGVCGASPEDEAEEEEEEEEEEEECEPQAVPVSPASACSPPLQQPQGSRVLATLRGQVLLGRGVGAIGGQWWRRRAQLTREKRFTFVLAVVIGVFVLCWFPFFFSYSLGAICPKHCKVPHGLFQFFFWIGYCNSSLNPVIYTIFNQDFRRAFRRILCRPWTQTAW", "assay": "Off-target 203710", "format": "binding", "experimental": "as §1, §2, §3, §4, §5, §6"}, "Glutamate, AMPA": {"test_system": "Glutamate, AMPA", "assay": "Off-target 232600", "format": "binding, Rat", "details": "10 µM", "experimental": "as §1, §2, §7, §6, §8, §9"}, "hERG potassium channel": {"biological_target": "T4, hERG potassium channel (Homo sapiens, UniProt Q12809)", "T4 construct": "purchased Eurofins Panlabs Discovery Services Taiwan, Ltd", "T4 sequence (Q12809 whole entry)": "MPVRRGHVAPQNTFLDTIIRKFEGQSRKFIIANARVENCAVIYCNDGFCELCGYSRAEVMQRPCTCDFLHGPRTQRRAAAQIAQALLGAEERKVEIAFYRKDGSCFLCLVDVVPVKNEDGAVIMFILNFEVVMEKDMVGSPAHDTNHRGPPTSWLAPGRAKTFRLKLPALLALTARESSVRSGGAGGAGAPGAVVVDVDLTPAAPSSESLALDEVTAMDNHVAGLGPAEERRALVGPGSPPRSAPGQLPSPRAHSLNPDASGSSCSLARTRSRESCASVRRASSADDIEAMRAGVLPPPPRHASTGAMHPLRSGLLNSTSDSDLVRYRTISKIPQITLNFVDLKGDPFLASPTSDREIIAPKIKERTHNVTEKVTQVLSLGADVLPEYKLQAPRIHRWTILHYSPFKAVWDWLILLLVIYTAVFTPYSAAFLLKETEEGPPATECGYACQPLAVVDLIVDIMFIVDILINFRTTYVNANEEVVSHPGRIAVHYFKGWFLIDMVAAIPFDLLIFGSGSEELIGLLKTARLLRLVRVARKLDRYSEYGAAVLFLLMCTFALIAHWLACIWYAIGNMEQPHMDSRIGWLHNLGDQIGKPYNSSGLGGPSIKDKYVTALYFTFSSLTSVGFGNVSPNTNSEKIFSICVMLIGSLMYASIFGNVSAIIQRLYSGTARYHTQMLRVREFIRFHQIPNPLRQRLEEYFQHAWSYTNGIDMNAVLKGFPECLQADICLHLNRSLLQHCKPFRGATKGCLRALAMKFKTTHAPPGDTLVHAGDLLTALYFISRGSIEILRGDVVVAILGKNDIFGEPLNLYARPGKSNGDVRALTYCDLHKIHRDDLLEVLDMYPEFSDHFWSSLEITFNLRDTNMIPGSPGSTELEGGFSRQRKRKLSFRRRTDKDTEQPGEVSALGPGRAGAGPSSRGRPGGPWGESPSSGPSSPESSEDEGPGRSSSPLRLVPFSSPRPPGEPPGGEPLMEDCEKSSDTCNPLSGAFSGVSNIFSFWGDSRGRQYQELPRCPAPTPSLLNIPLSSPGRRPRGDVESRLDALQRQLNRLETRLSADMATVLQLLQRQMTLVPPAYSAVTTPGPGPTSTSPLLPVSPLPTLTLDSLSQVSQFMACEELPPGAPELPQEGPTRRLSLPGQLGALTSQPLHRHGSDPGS", "assay": "Off-target 265900", "format": "binding", "experimental": "as §1, §2, §7, §6, §8, §9"}, "serum CPP": {"test_system": "serum CPP", "assay": "CPP calcium, CPP2 hydrodynamic diameter and T50 in rat sera at sacrifice", "format": "in vivo, male Wistar rats", "details": "5, 15, 50 mg/kg/day", "experimental": "The inhibitory effect of (OEG2)2-IP4 on heart calcifications was significant starting at 15 mg/kg/day (Fig. 6b). The compound’s activity was also evident following von Kossa staining (Fig. 6c) on the thoracic part of the aorta, and quantification of the von Kossa-positive area (Fig. 6d). […] In the femoral artery, reduction in bulk calcium was insignificant for all tested groups, likely due to the low level of calcification detected in the vehicle control (Fig. 6f, Supplementary Table 9).\nDLS analysis of CPPs induced in serum samples collected from in vivo adenine-induced VC studies and stored at −20 °C was performed as described for human serum samples and CPP hydrodynamic diameter development was monitored by hourly DLS measurements.\nThe first group was treated with vehicle (double distilled (d.d.) water), the second, third, and fourth groups were treated with daily doses equivalent of 5, 15, and 50 mg/kg of (OEG2)2-IP4, respectively, in 2 mL d.d. water starting 1 week after the administration of the adenine diet. […] Serum samples were analyzed for creatinine according to the Jaffe method, calcium (using flame atomic absorption spectrometry[74]), and phosphate (DiaSys Diagnostic Systems, Holzheim, Germany) concentrations. […] In addition, serum aliquots were centrifuged (10,000 × g, 4 °C, 30 min) and T50’s were determined as described above. […]"}, "Phosphodiesterase PDE3": {"biological_target": "T5, Phosphodiesterase PDE3 (Homo sapiens, UniProt Q14432)", "T5 construct": "purchased Eurofins Panlabs Discovery Services Taiwan, Ltd", "T5 sequence (Q14432 whole entry)": "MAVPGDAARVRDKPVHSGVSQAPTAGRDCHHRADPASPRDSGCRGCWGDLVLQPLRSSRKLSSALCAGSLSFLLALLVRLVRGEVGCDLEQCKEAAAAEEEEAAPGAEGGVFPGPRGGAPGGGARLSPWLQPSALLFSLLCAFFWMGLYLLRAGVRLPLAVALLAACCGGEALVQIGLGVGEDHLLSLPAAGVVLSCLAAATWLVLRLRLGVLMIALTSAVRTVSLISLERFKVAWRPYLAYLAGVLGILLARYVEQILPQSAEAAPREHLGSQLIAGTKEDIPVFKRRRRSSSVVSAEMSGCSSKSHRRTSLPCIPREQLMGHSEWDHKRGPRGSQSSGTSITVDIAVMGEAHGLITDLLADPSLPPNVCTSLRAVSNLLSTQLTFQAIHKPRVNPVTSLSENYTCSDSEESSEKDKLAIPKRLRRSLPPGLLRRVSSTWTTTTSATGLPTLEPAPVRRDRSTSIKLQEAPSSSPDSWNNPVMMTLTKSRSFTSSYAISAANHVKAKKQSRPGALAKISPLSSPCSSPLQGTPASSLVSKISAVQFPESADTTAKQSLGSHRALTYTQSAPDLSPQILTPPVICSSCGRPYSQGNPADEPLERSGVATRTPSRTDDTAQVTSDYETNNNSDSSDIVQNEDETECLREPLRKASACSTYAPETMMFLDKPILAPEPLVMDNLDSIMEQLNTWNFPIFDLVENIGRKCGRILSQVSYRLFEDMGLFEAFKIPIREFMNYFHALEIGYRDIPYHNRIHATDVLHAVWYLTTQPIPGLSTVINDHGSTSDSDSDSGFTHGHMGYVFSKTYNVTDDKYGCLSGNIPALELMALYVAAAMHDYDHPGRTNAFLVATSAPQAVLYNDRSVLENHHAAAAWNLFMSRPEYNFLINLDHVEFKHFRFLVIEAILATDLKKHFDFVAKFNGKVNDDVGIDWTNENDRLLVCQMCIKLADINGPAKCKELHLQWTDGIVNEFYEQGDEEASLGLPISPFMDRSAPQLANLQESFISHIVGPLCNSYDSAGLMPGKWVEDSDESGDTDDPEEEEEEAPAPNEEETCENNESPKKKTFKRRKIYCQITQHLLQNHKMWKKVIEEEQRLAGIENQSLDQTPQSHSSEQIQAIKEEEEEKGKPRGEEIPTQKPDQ", "assay": "Off-target 152000", "format": "biochemical", "experimental": "as §1, §2, §3, §4, §5, §6"}, "[3]": {"biological_target": "T6, Serotonin (5-Hydroxytryptamine) 5-HT2C (Homo sapiens, UniProt P28335)", "T6 construct": "purchased Eurofins Panlabs Discovery Services Taiwan, Ltd", "T6 sequence (P28335 33-458)": "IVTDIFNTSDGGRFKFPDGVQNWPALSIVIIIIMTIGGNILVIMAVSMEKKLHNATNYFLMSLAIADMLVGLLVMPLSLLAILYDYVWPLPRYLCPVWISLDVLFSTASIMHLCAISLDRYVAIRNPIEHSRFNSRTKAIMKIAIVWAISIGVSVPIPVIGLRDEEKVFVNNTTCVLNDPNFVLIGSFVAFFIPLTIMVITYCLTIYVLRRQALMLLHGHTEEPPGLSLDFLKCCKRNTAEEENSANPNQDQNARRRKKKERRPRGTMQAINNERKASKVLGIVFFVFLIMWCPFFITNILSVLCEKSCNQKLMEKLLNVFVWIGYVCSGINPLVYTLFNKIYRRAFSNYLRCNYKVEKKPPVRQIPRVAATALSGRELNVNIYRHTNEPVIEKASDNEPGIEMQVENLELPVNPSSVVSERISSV", "assay": "Off-target 271800", "format": "binding", "experimental": "as §1, §2, §7, §6, §8, §9"}, "Transporter, Adenosine": {"test_system": "Transporter, Adenosine", "assay": "Off-target 202000", "format": "binding, Guinea pig", "details": "10 µM", "experimental": "as §1, §2, §3, §4, §5, §6"}, "[4]": {"assay": "Precipitation in culture medium (naked eye, microscope)", "format": "physicochemical", "details": "100 µM, VSMC and macrophage assays", "experimental": "Macrophage accumulation and inflammation coincide with the initial phase of calcification. To this end, VSMCs and THP-1-derived macrophages were exposed to CPP2-supplemented medium. CPP2 prepared from human serum as described previously[61] (Supplementary Figs. 6 and 7), induced a pronounced VSMC monolayer calcification after 48 h, which was decreased by (OEG2)2-IP4 in a dose-dependent fashion, and the effect became significant at 10 µM (Fig. 3e). […] Both H2O2 (proxy for oxidative stress) and tumor necrosis factor-alpha (TNF-α) (proxy for inflammatory response) levels were assayed in the VSMC culture supernatants subsequent to CPP2 treatment with and without compounds[30]. However, no increase in H2O2 nor TNF-α compared to control could be detected in either assay. For the CPP-induced VSMC calcification assay (Fig. 3e) a roughly 10-fold higher concentration of (OEG2)2-IP4 was necessary to achieve similar activity as in the CaP-induced VSMC calcification assay (Fig. 3b). […]\nOccurrence of precipitation in the different treatment groups was assessed visually by the naked eye and by a microscope (CTR6000, Leica Camera AG) at ×25 magnification at 0 and 24 h (performed once in duplicate)."}},
  "data": [
    {"molecule": "COCCOCCO[C@@H]1[C@@H](OP(=O)(O)O)[C@H](OCCOCCOC)[C@@H](OP(=O)(O)O)[C@@H](OP(=O)(O)O)[C@H]1OP(=O)(O)O", "note": "[(OEG2)2-IP4, 4,6-Di-O-(methoxy-diethyleneglycol)-myo-inositol-1,2,3,5-tetrakis(phosphate)]", "values": [
      {"measurement": "inhibition at 10 µM", "setting": "Adenosine A1", "value": 4, "unit": "%"},
      {"measurement": "inhibition at 10 µM", "setting": "Monoamine Oxidase MAO-B", "value": 0, "unit": "%"},
      {"measurement": "macrophage viability", "setting": "[1]", "value": "does not alter viability"},
      {"measurement": "% Inhibition", "setting": "[2]", "value": 17, "unit": "%"},
      {"measurement": "inhibition at 10 µM", "setting": "α2B", "value": 3, "unit": "%"},
      {"measurement": "% Inhibition", "setting": "Glutamate, AMPA", "value": 8, "unit": "%"},
      {"measurement": "inhibition at 10 µM", "setting": "hERG potassium channel", "value": 11, "unit": "%"},
      {"measurement": "serum CPP calcium content, CPP2 hydrodynamic diameter and T50 in sera at sacrifice", "setting": "serum CPP", "value": "did not differ between treatment groups"},
      {"measurement": "inhibition at 10 µM", "setting": "Phosphodiesterase PDE3", "value": -1, "unit": "%"},
      {"measurement": "inhibition at 10 µM", "setting": "[3]", "value": -5, "unit": "%"},
      {"measurement": "% Inhibition", "setting": "Transporter, Adenosine", "value": -14, "unit": "%"}
    ]},
    {"molecule": "O=P(O)(O)O[C@H]1[C@H](OP(=O)(O)O)[C@@H](OP(=O)(O)O)[C@H](OP(=O)(O)O)[C@@H](OP(=O)(O)O)[C@H]1OP(=O)(O)O", "note": "[IP6, myo-Inositol hexakisphosphate]", "values": [
      {"measurement": "precipitation in culture medium", "setting": "[4]", "value": "precipitation in culture medium occurred"}
    ]}
  ]
}
